Several values for one entry are separate records, joined by “and”; a condition that tells them apart may be missing. Identical values can stand only once. Inconclusive results are not listed.
System: BDF1 mice, colon carcinoma 38 sc, T/C %
Assay: NCI In Vivo Anticancer Drug Screen. Data for tumor model Colon Carcinoma 38 (subcutaneous) in B6D2F1 (BDF1) mice
Outline: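 Mice with transplanted tumors are treated with compound or vehicle. Survival or tumor size is then measured in both groups. The ratio of treated to control gives the reported figure.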

[1] = endpoint: median tumor weight (est.), dose: 200.0 mg/kg/injection, schedule: Q07DX002 (ip), vehicle: saline with Tween-80, higher = larger tumour
[2] = endpoint: median tumor weight (est.), dose: 6.25 mg/kg/injection, schedule: Q07DX002 (ip), vehicle: saline with Tween-80, higher = larger tumour
[3] = endpoint: median tumor weight (est.), dose: 12.5 mg/kg/injection, schedule: Q07DX002 (ip), vehicle: saline with Tween-80, higher = larger tumour
[4] = endpoint: median tumor weight (est.), dose: 25.0 mg/kg/injection, schedule: Q07DX002 (ip), vehicle: saline with Tween-80, higher = larger tumour
[5] = endpoint: median tumor weight (est.), dose: 6.25 mg/kg/injection, schedule: Q07DX002 (ip), vehicle: saline, higher = larger tumour
[6] = endpoint: median tumor weight (est.), dose: 12.5 mg/kg/injection, schedule: Q07DX002 (ip), vehicle: saline, higher = larger tumour
[7] = endpoint: median tumor weight (est.), dose: 25.0 mg/kg/injection, schedule: Q07DX002 (ip), vehicle: saline, higher = larger tumour
[8] = endpoint: median tumor weight (est.), dose: 50.0 mg/kg/injection, schedule: Q07DX002 (ip), vehicle: saline, higher = larger tumour
[9] = endpoint: median tumor weight (est.), dose: 25.0 mg/kg/injection, schedule: Q07DX002 (ip), vehicle: suspension in saline, higher = larger tumour
[10] = endpoint: median tumor weight (est.), dose: 50.0 mg/kg/injection, schedule: Q07DX002 (ip), vehicle: suspension in saline, higher = larger tumour
[11] = endpoint: median tumor weight (est.), dose: 100.0 mg/kg/injection, schedule: Q07DX002 (ip), vehicle: saline, higher = larger tumour
[12] = endpoint: median tumor weight (est.), dose: 100.0 mg/kg/injection, schedule: Q07DX002 (ip), vehicle: suspension in saline, higher = larger tumour
[13] = endpoint: median tumor weight (est.), dose: 200.0 mg/kg/injection, schedule: Q07DX002 (ip), vehicle: saline, higher = larger tumour
[14] = endpoint: median tumor weight (est.), dose: 400.0 mg/kg/injection, schedule: Q07DX002 (ip), vehicle: saline, higher = larger tumour
[15] = endpoint: median tumor weight (est.), dose: 400.0 mg/kg/injection, schedule: Q07DX002 (ip), vehicle: suspension in saline, higher = larger tumour
[16] = endpoint: median tumor weight (est.), dose: 800.0 mg/kg/injection, schedule: Q07DX002 (ip), vehicle: saline, higher = larger tumour
[17] = endpoint: median tumor weight (est.), dose: 200.0 mg/kg/injection, schedule: Q07DX002 (ip), vehicle: suspension in saline, higher = larger tumour
[18] = endpoint: median tumor weight (est.), dose: 100.0 mg/kg/injection, schedule: Q07DX002 (ip), vehicle: saline with Tween-80, higher = larger tumour
[19] = endpoint: median tumor weight (est.), dose: 400.0 mg/kg/injection, schedule: Q07DX002 (ip), vehicle: saline with Tween-80, higher = larger tumour
[20] = endpoint: median tumor weight (est.), dose: 2.0 mg/kg/injection, schedule: Q07DX002 (ip), vehicle: suspension in saline, higher = larger tumour
[21] = endpoint: median tumor weight (est.), dose: 4.0 mg/kg/injection, schedule: Q07DX002 (ip), vehicle: suspension in saline, higher = larger tumour
[22] = endpoint: median tumor weight (est.), dose: 8.0 mg/kg/injection, schedule: Q07DX002 (ip), vehicle: suspension in saline, higher = larger tumour

## COc1cccc2c1C(=O)c1c(O)c3c(c(O)c1C2=O)CC(O)(/C(C)=N/NC(=O)CCC(=O)N/N=C(\C)C1(O)Cc2c(O)c4c(c(O)c2C(OC2CC(N)C(O)C(C)O2)C1)C(=O)c1c(OC)cccc1C4=O)CC3OC1CC(N)C(O)C(C)O1 (centres undefined)
endpoint: median survival time, dose: 28.0 mg/kg/injection, schedule: Q07DX003 (sc), vehicle: water, higher = longer survival
  T/C: 107 % of control
endpoint: median survival time, dose: 73.0 mg/kg/injection, schedule: Q07DX003 (sc), vehicle: water, higher = longer survival
  T/C: 100 % of control
endpoint: median survival time, dose: 118.0 mg/kg/injection, schedule: Q07DX003 (sc), vehicle: water, higher = longer survival
  T/C: 175 % of control
endpoint: median tumor weight (est.), dose: 4.0 mg/kg/injection, schedule: Q07DX002 (ip), vehicle: distilled water + Tween-80, higher = larger tumour
  T/C: 97 % of control
endpoint: median tumor weight (est.), dose: 8.0 mg/kg/injection, schedule: Q07DX002 (ip), vehicle: distilled water + Tween-80, higher = larger tumour
  T/C: 90 % of control
endpoint: median tumor weight (est.), dose: 8.0 mg/kg/injection, schedule: Q07DX002 (ip), vehicle: water, higher = larger tumour
  T/C: 104 % of control
endpoint: median tumor weight (est.), dose: 9.48 mg/kg/injection, schedule: Q07DX002 (ip), vehicle: water, higher = larger tumour
  T/C: 9 % of control
endpoint: median tumor weight (est.), dose: 14.2 mg/kg/injection, schedule: Q07DX002 (ip), vehicle: water, higher = larger tumour
  T/C: 2 % of control
endpoint: median tumor weight (est.), dose: 16.0 mg/kg/injection, schedule: Q07DX002 (ip), vehicle: distilled water + Tween-80, higher = larger tumour
  T/C: 69 % of control
endpoint: median tumor weight (est.), dose: 16.0 mg/kg/injection, schedule: Q07DX002 (ip), vehicle: water, higher = larger tumour
  T/C: 90 % of control
endpoint: median tumor weight (est.), dose: 32.0 mg/kg/injection, schedule: Q07DX002 (ip), vehicle: distilled water + Tween-80, higher = larger tumour
  T/C: 59 % of control
endpoint: median tumor weight (est.), dose: 32.0 mg/kg/injection, schedule: Q07DX002 (ip), vehicle: water, higher = larger tumour
  T/C: 54 % of control
endpoint: median tumor weight (est.), dose: 64.0 mg/kg/injection, schedule: Q07DX002 (ip), vehicle: distilled water + Tween-80, higher = larger tumour
  T/C: 4 % of control

## Nc1ncnc2c1ccn2C1OC(CO)C(O)C1O (centres undefined)
endpoint: median tumor weight (est.), dose: 0.5 mg/kg/injection, schedule: Q07DX003 (ip), vehicle: Klucel (hydroxypropylcellulose) (HPC), higher = larger tumour
  T/C: 110 % of control and 87 % of control
endpoint: median tumor weight (est.), dose: 1.0 mg/kg/injection, schedule: Q07DX003 (ip), vehicle: Klucel (hydroxypropylcellulose) (HPC), higher = larger tumour
  T/C: 74 % of control and 80 % of control
endpoint: median tumor weight (est.), dose: 2.0 mg/kg/injection, schedule: Q07DX003 (ip), vehicle: Klucel (hydroxypropylcellulose) (HPC), higher = larger tumour
  T/C: 84 % of control and 86 % of control

## Nc1nc(-c2ccccc2)c(Br)c(=O)[nH]1
[1]
  T/C: 105 % of control
endpoint: median tumor weight (est.), dose: 1600.0 mg/kg/injection, schedule: Q07DX002 (ip), vehicle: saline with Tween-80, higher = larger tumour
  T/C: 36 % of control and 43 % of control

## O=C1C2CC=CCC2C(=O)N1SC(Cl)(Cl)Cl (centres undefined)
endpoint: median tumor weight (est.), dose: 3.12 mg/kg/injection, schedule: Q07DX002 (ip), vehicle: saline with Tween-80, higher = larger tumour
  T/C: 107 % of control
[2]
  T/C: 110 % of control
[3]
  T/C: 99 % of control
[4]
  T/C: 84 % of control

## COC1=NCN=C2SC=C(N)N=C12
[5]
  T/C: 102 % of control
[6]
  T/C: 91 % of control
endpoint: median tumor weight (est.), dose: 12.5 mg/kg/injection, schedule: Q07DX003 (ip), vehicle: saline, higher = larger tumour
  T/C: 104 % of control
[7]
  T/C: 101 % of control
[8]
  T/C: 85 % of control
endpoint: median tumor weight (est.), dose: 50.0 mg/kg/injection, schedule: Q07DX003 (ip), vehicle: saline, higher = larger tumour
  T/C: 151 % of control
endpoint: median tumor weight (est.), dose: 100.0 mg/kg/injection, schedule: Q07DX003 (ip), vehicle: saline, higher = larger tumour
  T/C: 154 % of control

## CC1C2CCC3C(O)C2(CC(O)C2(O)C1CC(O)C2(C)C)CC3(C)O (centres undefined)
endpoint: median tumor weight (est.), dose: 0.5 mg/kg/injection, schedule: Q07DX002 (ip), vehicle: Klucel (hydroxypropylcellulose) (HPC), higher = larger tumour
  T/C: 103 % of control
endpoint: median tumor weight (est.), dose: 2.0 mg/kg/injection, schedule: Q07DX002 (ip), vehicle: Klucel (hydroxypropylcellulose) (HPC), higher = larger tumour
  T/C: 181 % of control

## Cn1cnc([N+](=O)[O-])c1Sc1ncn[nH]1
[7]
  T/C: 78 % of control
[9]
  T/C: 112 % of control
[8]
  T/C: 73 % of control
[10]
  T/C: 118 % of control
[11]
  T/C: 79 % of control
[12]
  T/C: 85 % of control
[13]
  T/C: 52 % of control
[14]
  T/C: 65 % of control
[15]
  T/C: 107 % of control
[16]
  T/C: 84 % of control

## CN(C)[C@@H]1C(=O)C(C(N)=O)=C(O)[C@@]2(O)C(=O)C3=C(O)c4c(O)ccc(Cl)c4[C@@](C)(O)[C@H]3C[C@@H]12
[7]
  T/C: 182 % of control
[9]
  T/C: 82 % of control
[8]
  T/C: 188 % of control
[10]
  T/C: 119 % of control
[11]
  T/C: 117 % of control
[12]
  T/C: 80 % of control
[13]
  T/C: 93 % of control
[17]
  T/C: 93 % of control
[15]
  T/C: 65 % of control

## NC(=S)N/N=C/c1ccc(OC(=O)COc2ccccc2)cn1
[4]
  T/C: 88 % of control
endpoint: median tumor weight (est.), dose: 50.0 mg/kg/injection, schedule: Q07DX002 (ip), vehicle: saline with Tween-80, higher = larger tumour
  T/C: 88 % of control
[18]
  T/C: 55 % of control
[1]
  T/C: 72 % of control
[19]
  T/C: 57 % of control

## O=c1nc(Oc2ccccc2)nc2ncccn12
[3]
  T/C: 82 % of control
[4]
  T/C: 94 % of control
[18]
  T/C: 74 % of control

## Cc1cc(NCCN(C(C)C)C(C)C)nc(/N=C(\N)Nc2ccc(Cl)c(C(F)(F)F)c2)n1
endpoint: median tumor weight (est.), dose: 2.5 mg/kg/injection, schedule: Q07DX002 (ip), vehicle: Klucel (hydroxypropylcellulose) (HPC), higher = larger tumour
  T/C: 89 % of control
endpoint: median tumor weight (est.), dose: 10.0 mg/kg/injection, schedule: Q07DX002 (ip), vehicle: Klucel (hydroxypropylcellulose) (HPC), higher = larger tumour
  T/C: 82 % of control
endpoint: median tumor weight (est.), dose: 20.0 mg/kg/injection, schedule: Q07DX002 (ip), vehicle: Klucel (hydroxypropylcellulose) (HPC), higher = larger tumour
  T/C: 95 % of control
endpoint: median tumor weight (est.), dose: 40.0 mg/kg/injection, schedule: Q07DX002 (ip), vehicle: Klucel (hydroxypropylcellulose) (HPC), higher = larger tumour
  T/C: 67 % of control

## CN(C)C=O
[7]
  T/C: 45 % of control
[8]
  T/C: 83 % of control
[13]
  T/C: 89 % of control
[14]
  T/C: 89 % of control and 92 % of control
[16]
  T/C: 115 % of control

## CCCCCCCC(=O)OCC(=O)[C@]1(O)Cc2c(O)c3c(c(O)c2[C@@H](OC2CC(N)C(O)C(C)O2)C1)C(=O)c1c(OC)cccc1C3=O (some centres undefined)
[20]
  T/C: 75 % of control
[21]
  T/C: 70 % of control
[22]
  T/C: 37 % of control

## CCC(C)C(=O)OC1C(=O)OC2CC3C(C)=CC(=O)C(O)C3(C)C3C4(O)OCC23C1C(C)C4O (centres undefined)
endpoint: median tumor weight (est.), dose: 0.5 mg/kg/injection, schedule: Q07DX002 (ip), vehicle: suspension in saline, higher = larger tumour
  T/C: 90 % of control
endpoint: median tumor weight (est.), dose: 1.0 mg/kg/injection, schedule: Q07DX002 (ip), vehicle: suspension in saline, higher = larger tumour
  T/C: 77 % of control
[20]
  T/C: 58 % of control
[21]
  T/C: 88 % of control
[22]
  T/C: 44 % of control

## COc1cccc2c1C(CO)N1C(C#N)C3CC(C(=O)O)C(C1C2)N3C (centres undefined)
[5]
  T/C: 71 % of control
[6]
  T/C: 45 % of control
[7]
  T/C: 108 % of control
[8]
  T/C: 80 % of control
[11]
  T/C: 66 % of control

## C=C(NC(=O)C(=C)NC(=O)c1csc(C2=NC3c4csc(n4)C4NC(=O)c5csc(n5)C(C(C)(O)C(C)O)NC(=O)C5CSC(=N5)/C(=C/C)NC(=O)C(C(C)O)NC(=O)c5csc(n5)C3(CC2)NC(=O)C(C)NC(=O)C(=C)NC(=O)C(=C)NC(=O)C(C(C)C)NC2C=Cc3c(C(C)O)cc(nc3C2O)C(=O)OC4C)n1)C(N)=O (centres undefined)
endpoint: median tumor weight (est.), dose: 12.5 mg/kg/injection, schedule: Q07DX002 (ip), vehicle: suspension in saline, higher = larger tumour
  T/C: 95 % of control
[9]
  T/C: 98 % of control
[10]
  T/C: 111 % of control
[12]
  T/C: 72 % of control
[17]
  T/C: 75 % of control
[15]
  T/C: 86 % of control

## CC(=O)NC(Cc1ccc(F)cc1)C(=O)O (centres undefined)
[18]
  T/C: 84 % of control
[1]
  T/C: 83 % of control
[19]
  T/C: 77 % of control
endpoint: median tumor weight (est.), dose: 800.0 mg/kg/injection, schedule: Q07DX002 (ip), vehicle: saline with Tween-80, higher = larger tumour
  T/C: 77 % of control

## Nc1nnc[se]1
[2]
  T/C: 79 % of control and 100 % of control
[3]
  T/C: 66 % of control and 73 % of control
[4]
  T/C: 86 % of control and 89 % of control
[1]
  T/C: 50 % of control
